Results reported in patent publication US10654788B2, “Method for synthesizing novel compounds derived from 3-hydroxy-cyclopentyl acetic acid” (L'OREAL, priority 2015, dated 2020).

Tests used:
TGM1 transcripts = assay: Expression of TGM1 transcripts in keratinocytes (RT-qPCR); assay type: cell-based; settings: human epidermal keratinocytes
Description: (§1) The influence of compound 5, in particular obtained according to the preparation process described in example 1 above, on the epidermal renewal and the barrier effect of the skin was evaluated in vitro by measuring the expression of the TGM1 and TGM3 transcripts in keratinocytes.
(§2) Human epidermal keratinocytes were incubated for 24 hours in the presence or absence (control) of the compound to be tested. At the end of the incubation, the total RNAs were extracted and then quantified. The expression of the TGM1 and TGM3 transcripts was then measured by means of a 2-step RT-qPCR method by means of a LightCycler® 480 system and according to the SYBR® Green (Qiagen) incorporation technique. The expression of these transcripts was standardized relative to the expression of 2 housekeeping genes, RPL13A and GAPDH. The experiment was reproduced 3 times (N=3).
(§3) The results are expressed as fold change (fc) relative to the control.

TGM3 transcripts = assay: Expression of TGM3 transcripts in keratinocytes (RT-qPCR); assay type: cell-based; settings: human epidermal keratinocytes
Description: as §1, §2, §3

[1] = 24 hours incubation, 100 μm, standardized to RPL13A and GAPDH, N=3

With `CCCCCCCCC1C(O)CCC1CC(=O)O` (stereo not shown) [Compound 5] the “expression of the TGM1 transcripts (class in words)” value (TGM1 transcripts; 24 hours) was “moderately stimulated”, the “TGM1 transcript expression, fold change (fc) relative to the control” value (TGM1 transcripts; [1]) was 1.9 fc and the “expression of the TGM3 transcripts (class in words)” value (TGM3 transcripts; 24 hours) was “moderately stimulated”. For the same compound, the “TGM3 transcript expression, fold change (fc) relative to the control” value (TGM3 transcripts; [1]) was 1.8 fc.
